Reference: patent US20100267561A1, “HERBICIDAL PYRIDAZINONE DERIVATIVES” (priority 2007, published 2010)

Assays:
Type in all cases: in vivo
[1] = system: velvetleaf (Abutilon theophrasti); assay: Test A pre-/postemergence plant response
How it was run: (§1)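 Seeds in loam soil/sand blend treated preemergence by directed soil spray, with simultaneous postemergence spray on 2–10 cm plants at one- to two-leaf stage; compounds in non-phytotoxic solvent with surfactant. Injury visually rated versus untreated controls after about 10 days in greenhouse, 0 (no effect) to 100 (complete control).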

[2] = system: morningglory (Ipomoea coccinea); assay: Test A pre-/postemergence plant response
How it was run: as §1

[3] = system: pigweed (Amaranthus retroflexus); assay: Test A pre-/postemergence plant response
How it was run: as §1

[4] = system: giant foxtail (Setaria faberi); assay: Test A pre-/postemergence plant response
How it was run: as §1

[5] = system: wheat (Triticum aestivum); assay: Test A pre-/postemergence plant response
How it was run: as §1

[6] = system: barnyardgrass (Echinochloa crus-galli); assay: Test A pre-/postemergence plant response
How it was run: as §1

[7] = system: large crabgrass (Digitaria sanguinalis); assay: Test A pre-/postemergence plant response
How it was run: as §1

corn (Zea mays) = assay: Test A pre-/postemergence plant response
How it was run: as §1

[8] = system: chickweed (Stellaria media); assay: Test B postemergence plant response; details: for Chickweed plant response rating: 8 g ai/ha, postemergence, 0-100 scale; for Plant response rating, Chickweed: Postemergence
How it was run: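 Postemergence greenhouse test; plants at 2 to 18 cm (1- to 4-leaf stage) given formulated test chemical, held 13 to 15 days, then visually rated against untreated controls on a 0 (no effect) to 100 (complete control) scale; dash means no result.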

[9] = system: cocklebur (Xanthium strumarium); assay: Test B pre-/postemergence plant response; details: for Cocklebur plant response rating: 8 g ai/ha
How it was run: (§2)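 Preemergence and postemergence (plants 2-18 cm, 1- to 4-leaf stage) applications used test chemicals in a non-phytotoxic solvent with surfactant. Plants were held in a greenhouse 13 to 15 days, then rated visually against controls on a 0-100 scale (0 no effect, 100 complete control).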

[10] = system: yellow nutsedge (Cyperus esculentus); assay: Test B pre-/postemergence plant response
How it was run: as §2

[11] = system: bermudagrass (Cynodon dactylon); assay: Test B pre-/postemergence plant response; details: for Bermudagrass plant response rating: 8 g ai/ha
How it was run: as §2

[12] = Postemergence, 31 g ai/ha, 0 to 100 scale (0 no effect, 100 complete control)
[13] = Postemergence, 125 g ai/ha, 0 to 100 scale, 0 no effect, 100 complete control
[14] = Preemergence, 31 g ai/ha, 0 to 100 scale, 0 is no effect, 100 is complete control
[15] = Preemergence, 125 g ai/ha, 0 to 100 scale (0 no effect, 100 complete control)
[16] = 62 g ai/ha, scale 0 to 100, 0 no effect, 100 complete control
[17] = Postemergence, 16 g ai/ha, scale 0 to 100
[18] = Postemergence, 31 g ai/ha, scale 0 to 100
[19] = Postemergence, 62 g ai/ha, scale 0 to 100, 0 no effect, 100 complete control
[20] = Preemergence, 16 g ai/ha, scale 0 to 100 (0 no effect, 100 complete control)
[21] = Preemergence, 31 g ai/ha, 0 to 100 scale, 0 no effect, 100 complete control
[22] = Preemergence, 62 g ai/ha, scale 0 to 100
[23] = 8 g ai/ha, postemergence, 0-100 scale
[24] = Preemergence, 31 g ai/ha, scale 0 to 100 (0 no effect, 100 complete control)
[25] = Preemergence, 8 g ai/ha, scale 0 to 100
[26] = Preemergence, scale 0 to 100 (0 no effect, 100 complete control)
[27] = Preemergence, 62 g ai/ha, 0 to 100 scale, 0 no effect, 100 complete control

Cc1cc(-c2ccc(Cl)cc2)nn1-c1c(OC(=O)c2ccccc2)cnn(C)c1=O [Compound 48]
60: Plant response rating, Wheat [5, 13] | Plant response rating, Barnyardgrass [6, 14] | Plant response rating, Crabgrass, Large [7, 14] | Plant response rating, Corn (corn (Zea mays); [13])
0: Plant response rating, Velvetleaf [1, 14] | Plant response rating, Velvetleaf [1, 15] | Plant response rating, Morningglory [2, 12] | Plant response rating, Morningglory [2, 13] | Plant response rating, Morningglory [2, 14] | Plant response rating, Morningglory [2, 15] | Plant response rating, Pigweed [3, 14] | Plant response rating, Pigweed [3, 15] | Plant response rating, Wheat [5, 12] | Chickweed plant response rating [8] | Plant response rating, Chickweed ([8]; 16 g ai/ha, scale 0 to 100) | Plant response rating, Chickweed ([8]; 31 g ai/ha, scale 0 to 100) | Plant response rating, Chickweed [8, 16] | Cocklebur plant response rating ([9]; postemergence, 0-100 scale) | Plant response rating, Cocklebur [9, 17] | Plant response rating, Cocklebur [9, 18] | Plant response rating, Cocklebur [9, 19] | Plant response rating, Cocklebur [9, 20] | Plant response rating, Cocklebur [9, 21] | Plant response rating, Cocklebur [9, 22] | Cocklebur plant response rating ([9]; Preemergence, scale 0 to 100) | Nutsedge, Yellow plant response rating [10, 23] | Plant response rating, Nutsedge, Yellow [10, 17] | Plant response rating, Nutsedge, Yellow [10, 18] | Plant response rating, Nutsedge, Yellow [10, 19] | Plant response rating, Nutsedge, Yellow [10, 20] | Plant response rating, Nutsedge, Yellow [10, 24] | Plant response rating, Nutsedge, Yellow [10, 22] | Nutsedge, Yellow plant response rating [10, 25] | Bermudagrass plant response rating [11, 26] | Plant response rating, Bermudagrass [11, 20] | Plant response rating, Bermudagrass [11, 21] | Plant response rating, Bermudagrass [11, 22]
70: Plant response rating, Velvetleaf [1, 13]
80: Plant response rating, Foxtail, Giant [4, 13] | Plant response rating, Wheat [5, 15] | Plant response rating, Crabgrass, Large [7, 13] | Plant response rating, Corn (corn (Zea mays); [15])
20: Plant response rating, Velvetleaf [1, 12] | Plant response rating, Pigweed [3, 12] | Plant response rating, Barnyardgrass [6, 12] | Plant response rating, Crabgrass, Large [7, 12] | Plant response rating, Corn (corn (Zea mays); [12])
65: Bermudagrass plant response rating ([11]; postemergence, 0-100 scale)
30: Plant response rating, Pigweed [3, 13] | Plant response rating, Foxtail, Giant [4, 12] | Plant response rating, Wheat [5, 14]
98: Plant response rating, Bermudagrass [11, 17]
90: Plant response rating, Foxtail, Giant [4, 14] | Plant response rating, Barnyardgrass [6, 13]
100: Plant response rating, Foxtail, Giant [4, 15] | Plant response rating, Barnyardgrass [6, 15] | Plant response rating, Crabgrass, Large [7, 15] | Plant response rating, Bermudagrass [11, 18] | Plant response rating, Bermudagrass [11, 19]

Cc1cc(-c2ccc(Cl)cc2)nn1-c1c(OC(=O)OCC(C)C)cnn(C)c1=O [Compound 57]
70: Plant response rating, Wheat [5, 15]
98: Plant response rating, Bermudagrass [11, 18]
80: Plant response rating, Barnyardgrass [6, 13] | Plant response rating, Crabgrass, Large [7, 13]
85: Plant response rating, Bermudagrass [11, 17]
90: Plant response rating, Foxtail, Giant [4, 13] | Plant response rating, Foxtail, Giant [4, 14]
60: Plant response rating, Barnyardgrass [6, 14] | Plant response rating, Corn (corn (Zea mays); [13])
50: Plant response rating, Wheat [5, 13] | Plant response rating, Crabgrass, Large [7, 14] | Plant response rating, Corn (corn (Zea mays); [15])
65: Bermudagrass plant response rating ([11]; postemergence, 0-100 scale)
0: Plant response rating, Velvetleaf [1, 12] | Plant response rating, Velvetleaf [1, 13] | Plant response rating, Velvetleaf [1, 14] | Plant response rating, Velvetleaf [1, 15] | Plant response rating, Morningglory [2, 12] | Plant response rating, Morningglory [2, 13] | Plant response rating, Morningglory [2, 14] | Plant response rating, Morningglory [2, 15] | Plant response rating, Pigweed [3, 12] | Plant response rating, Pigweed [3, 13] | Plant response rating, Pigweed [3, 14] | Plant response rating, Pigweed [3, 15] | Plant response rating, Foxtail, Giant [4, 12] | Plant response rating, Wheat [5, 12] | Plant response rating, Wheat [5, 14] | Plant response rating, Barnyardgrass [6, 12] | Plant response rating, Crabgrass, Large [7, 12] | Plant response rating, Corn (corn (Zea mays); [12]) | Plant response rating, Corn (corn (Zea mays); [14]) | Chickweed plant response rating [8] | Plant response rating, Chickweed ([8]; 16 g ai/ha, scale 0 to 100) | Plant response rating, Chickweed ([8]; 31 g ai/ha, scale 0 to 100) | Plant response rating, Chickweed [8, 16] | Cocklebur plant response rating ([9]; postemergence, 0-100 scale) | Plant response rating, Cocklebur [9, 17] | Plant response rating, Cocklebur [9, 18] | Plant response rating, Cocklebur [9, 19] | Plant response rating, Cocklebur [9, 20] | Plant response rating, Cocklebur [9, 24] | Plant response rating, Cocklebur [9, 27] | Cocklebur plant response rating ([9]; Preemergence, scale 0 to 100) | Nutsedge, Yellow plant response rating [10, 23] | Plant response rating, Nutsedge, Yellow [10, 17] | Plant response rating, Nutsedge, Yellow [10, 18] | Plant response rating, Nutsedge, Yellow [10, 19] | Plant response rating, Nutsedge, Yellow [10, 24] | Plant response rating, Nutsedge, Yellow [10, 27] | Nutsedge, Yellow plant response rating [10, 25] | Nutsedge, Yellow plant response rating ([10]; Preemergence, 16 g ai/ha, scale 0 to 100)
100: Plant response rating, Foxtail, Giant [4, 15] | Plant response rating, Barnyardgrass [6, 15] | Plant response rating, Crabgrass, Large [7, 15] | Plant response rating, Bermudagrass [11, 19] | Bermudagrass plant response rating [11, 26] | Plant response rating, Bermudagrass [11, 20] | Plant response rating, Bermudagrass [11, 24] | Plant response rating, Bermudagrass [11, 27]
